Results: the NIST ThermoML archive (doi:10.1016/j.fluid.2005.05.012)

Experiment: xn = mol fraction of the nth substance listed
Conditions: 101.33 kPa, Liquid

CC(C)CO [2-methyl-1-propanol] + CN1CCNCC1
x1 = 1
Conditions | mass density [kg/m3] | viscosity [mPa·s]
293.15 K | 801.58 | 3.994
298.15 K | 798.09 | 3.334
303.15 K | 794.09 | 2.794

CN1CCNCC1 [N-methylpiperazine] + CC(C)CO
Conditions | mass density, 293.15 K [kg/m3] | mass density, 298.15 K [kg/m3] | mass density, 303.15 K [kg/m3] | viscosity, 293.15 K [mPa·s] | viscosity, 298.15 K [mPa·s] | viscosity, 303.15 K [mPa·s]
x2 = 0 | 903.78 | 899.8 | 894.55 | 2.1 | 1.841 | 1.624
x2 = 0.0515 | 901.11 | 897.16 | 891.98 | 2.237 | 1.941 | 1.699
x2 = 0.0983 | 898.38 | 894.46 | 889.35 | 2.361 | 2.046 | 1.781
x2 = 0.1506 | 895.07 | 891.19 | 886.16 | 2.542 | 2.198 | 1.914
x2 = 0.2011 | 891.66 | 887.82 | 882.88 | 2.728 | 2.354 | 2.039
x2 = 0.2971 | 884.72 | 880.97 | 876.18 | 3.084 | 2.647 | 2.288
x2 = 0.402 | 876.51 | 872.85 | 868.24 | 3.469 | 2.957 | 2.541
x2 = 0.4982 | 868.29 | 864.71 | 860.24 | 3.838 | 3.249 | 2.785
x2 = 0.6001 | 858.58 | 855.07 | 850.74 | 4.142 | 3.504 | 2.999
x2 = 0.6995 | 847.72 | 844.25 | 840.04 | 4.382 | 3.693 | 3.151
x2 = 0.7978 | 835.15 | 831.71 | 827.6 | 4.487 | 3.789 | 3.211
x2 = 0.8995 | 819.74 | 816.28 | 812.25 | 4.423 | 3.708 | 3.116

CN1CCNCC1 [N-methylpiperazine] + CC(C)O
Conditions | mass density, 293.15 K [kg/m3] | mass density, 298.15 K [kg/m3] | mass density, 303.15 K [kg/m3] | viscosity, 293.15 K [mPa·s] | viscosity, 298.15 K [mPa·s] | viscosity, 303.15 K [mPa·s]
x2 = 0 | 903.78 | 899.8 | 894.54 | 2.1 | 1.841 | 1.624
x2 = 0.0998 | 897.99 | 893.98 | 888.87 | 2.261 | 1.967 | 1.733
x2 = 0.1988 | 891.42 | 887.39 | 882.45 | 2.393 | 2.072 | 1.816
x2 = 0.3003 | 883.75 | 879.73 | 874.96 | 2.502 | 2.162 | 1.891
x2 = 0.3998 | 875.22 | 871.21 | 866.62 | 2.581 | 2.224 | 1.938
x2 = 0.5 | 865.48 | 861.47 | 857.07 | 2.65 | 2.281 | 1.984
x2 = 0.5996 | 854.41 | 850.38 | 846.15 | 2.69 | 2.312 | 2.012
x2 = 0.7 | 841.49 | 837.39 | 833.32 | 2.704 | 2.329 | 2.027
x2 = 0.7991 | 826.48 | 822.27 | 818.3 | 2.678 | 2.309 | 2.008
x2 = 0.8503 | 817.61 | 813.32 | 809.39 | 2.648 | 2.284 | 1.986
x2 = 0.9003 | 808.06 | 803.69 | 799.79 | 2.615 | 2.25 | 1.954
x2 = 0.9489 | 797.8 | 793.36 | 789.46 | 2.541 | 2.183 | 1.893

CN1CCNCC1 [N-methylpiperazine] + CCCCO
Conditions | mass density, 293.15 K [kg/m3] | mass density, 298.15 K [kg/m3] | mass density, 303.15 K [kg/m3] | viscosity, 293.15 K [mPa·s] | viscosity, 298.15 K [mPa·s] | viscosity, 303.15 K [mPa·s]
x2 = 0 | 903.79 | 899.8 | 894.54 | 2.1 | 1.841 | 1.624
x2 = 0.0982 | 898.89 | 894.98 | 889.88 | 2.247 | 1.966 | 1.73
x2 = 0.199 | 893.13 | 889.24 | 884.23 | 2.431 | 2.115 | 1.859
x2 = 0.2966 | 886.88 | 883.01 | 878.11 | 2.631 | 2.283 | 2.002
x2 = 0.3973 | 879.73 | 875.91 | 871.16 | 2.841 | 2.461 | 2.153
x2 = 0.5001 | 871.61 | 867.85 | 863.29 | 3.018 | 2.615 | 2.284
x2 = 0.6004 | 862.72 | 859.01 | 854.62 | 3.181 | 2.751 | 2.392
x2 = 0.6995 | 852.72 | 849.01 | 844.76 | 3.261 | 2.832 | 2.471
x2 = 0.7537 | 846.6 | 842.86 | 838.67 | 3.272 | 2.846 | 2.495
x2 = 0.7936 | 841.74 | 837.97 | 833.81 | 3.258 | 2.841 | 2.486
x2 = 0.8002 | 840.9 | 837.13 | 832.97 | 3.247 | 2.833 | 2.489
x2 = 0.8419 | 835.38 | 831.58 | 827.45 | 3.218 | 2.812 | 2.473
x2 = 0.8997 | 827 | 823.16 | 819.05 | 3.145 | 2.756 | 2.427
